The record followed here is patent publication US10265378B2, “Combination therapy for head and neck cancer” (Cornell University, priority 2014, dated 2019).

Molecules are shown by their SMILES.

Data set [1] in a line: Consumption of drug containing drinking water and diet. The class given is in vivo, mouse. Particulars: 4-NQO treated mice, 15 week post 4-NQO treatment. The source says: Drug treatments reduce tongue tumor development. All of the mice tolerated the 10 week 4-NQO treatment, and almost all of the mice survived the 15 week post 4-NQO treatment period (A). We determined that the CD1530 in the regular drinking water was stable for at least 7 days at room temperature by HPLC analysis (FIG. 7); thus, we decided to use drinking water as a delivery method because this method is effective and less laborious.

The subject of data set [2] is GO categories in mouse tongue. The data set can be described thus: Gene ontology (GO) analysis of RNA-Seq data. The class given is in vivo. Conditions: compared to the 4-NQO group. The procedure: Gene ontology (GO) analysis. Gene ontology (GO) analysis (p-value cutoff: 0.00001), using the ConsensusPathDB online tool, was conducted on the Gene Ontology level 3 of the “Biological Process” domain that has predefined, functional sets for enrichment analysis with default parameter settings.

The subject of the next data set is IL-6. Briefly: Immunohistochemistry of tongue epithelium: IL-6. The class given is in vivo, mouse. Particulars: compared to the 4-NQO group; antibody staining. The source says: The tongues were fixed, embedded in paraffin, and sectioned. Then the tissue sections were stained with various antibodies (magnification, 200×). Four to five representative areas of each tongue section from two to four mice/group were photographed and analyzed (FIGS. 12A and 12B). Interleukin-6 (IL-6) is a multifunctional cytokine that is involved in the regulation of immune responses and cellular functions. IL-6 levels are enhanced in human oral squamous cell carcinoma and IL-6 is considered a bad prognostic factor in this cancer (Expert Opin Ther Targets. 2013 January; 17(1):53-9). IL-6 protein was detected primarily in the basal layer of tongue epithelium in the UNT samples (FIG. 12A, arrows), but in the 4-NQO treated samples we observed both an increase in the protein level and an expansion of IL-6 signal to the suprabasal layers of the tongue epithelium (FIG. 12A).

Another data set deals with β-catenin. Briefly: Immunohistochemistry of tongue epithelium: β-catenin. It counts as in vivo, mouse. Particulars: compared to the 4-NQO group; antibody staining. The procedure:
(§1) Immunohistochemistry. Paraffin embedded tongue sections were stained with various antibodies (supporting information).
(§2) Immunohistochemistry. Paraffin-embedded sections (from two to four mice per group) were deparaffinized and rehydrated, and antigen retrieval was performed using an antigen unmasking solution (Vector Laboratories, H-3300). After quenching endogenous peroxidase with 3% H2O2, the tissue sections were blocked with the blocking reagent (from the M.O.M. kit from Vector Laboratories for 4-HNE) or 10% goat serum (Vector Laboratories). Then, tissue sections were incubated with a 4-HNE antibody (1:700; mouse monoclonal antibody; Abcam, ab48506), a β-catenin antibody (1:400; rabbit polyclonal antibody; Abcam, ab6302), or a MMP9 antibody (1:70; rabbit polyclonal antibody; Abcam, ab38898), respectively, overnight at 4° C. The sections were then incubated with secondary antibodies (1:200, anti-mouse IgG from the M.O.M kit for 4-1-INE; ready-to-use anti-rabbit IgG from the Invitrogen SuperPicture kit for β-catenin and MMP9). As a negative control, sections were stained without incubation with primary antibodies. The signals were visualized based on a peroxidase detection mechanism with 3,3-diaminobenzidine (DAB) used as the substrate. Four to five representative areas of each mouse tongue section from two to four mice per group were photographed and analyzed.

In data set [3] the test system is 4-hydroxynonenal (4-HNE), marker of oxidative stress. The data set can be described thus: Immunohistochemistry of tongue epithelium: 4-HNE. It counts as in vivo, mouse. Conditions: compared to the 4-NQO group; antibody staining. Here is the method: as §1, §2
For data set [4], the system named is mouse tongue mRNA transcriptome. Briefly: RNA-Seq analysis of the mRNA transcriptome of mouse tongues. It counts as in vivo. Here is the method: RNA-Seq analysis of the mRNA transcriptome. One part of each mouse tongue (same position on each mouse tongue) was snap frozen in liquid N2 and stored at −70° C. until total RNA extraction. Total tissue RNA was extracted and subjected to Next-Generation Sequencing (RNA-Seq) at the Genomics Resources Core Facility, Weill Cornell Medical College. Bioinfomatics analyses were performed using the Tophat and Cufflink software. (supporting information).
RNA-Seq analysis of mRNA transcriptome. […] The GEO Accession number is GSE54246; embargoed until publication.

[5] abbreviates: compared to the 4-NQO group, p<0.05.

On to `O=C(O)c1ccc(-c2ccc3cc(O)c(C45CC6CC(CC(C6)C4)C5)cc3c2)cc1` [CD1530], for which, in data set [1], the “consumption of drinking water containing drug vs regular drinking water” value is “comparable”. For the same molecule, in data set [2], the “GO categories related to cell cycle, DNA replication, and mitosis” value is listed as “most under-expressed”; the “over-represented GO categories” value is given as “over-representation of many GO categories, with some of them involved in lipid metabolism”. Besides, the “IL-6 protein levels in the tongue epithelium” value with IL-6 is listed as “lower IL-6 protein levels”. For the same molecule, in the data set with β-catenin, the “β-catenin protein levels in the tongue epithelium” value is reported as “lower β-catenin protein levels”. Moreover, the “4-HNE levels in tongue samples” value in data set [3] is recorded as “lower”. Further, the “transcript levels of DNA replication genes (MCM 2-7 and 10, DNA2, LIG1, ORC1, POLA1, PRIM2)” value in data set [4] (compared to the 4-NQO group) is reported as “significantly lower transcript levels of the majority of these genes”. Further, in data set [4] (setting [5]), the “number of genes with decreased transcript levels” value is 531, the “number of genes with increased transcript levels” value came out at 987 and the “number of genes with significantly different transcript levels” value was determined as 1518. Besides, the “Cyp26a1 mRNA level” value in data set [4] (greater than in other groups, RARγ target gene) is “about 20 fold”.
